Some results are limits rather than exact numbers.

This passage reports IC50 results from US9539260B2, “Dihydro-benzo-oxazine and dihydro-pyrido-oxazine derivatives” (Novartis AG, priority 2012, dated 2017).

For one assay, the target named is PI3K delta (Homo sapiens (Human), UniProt O00329). Nature of the assay: Enzymatic PI3K delta isoform inhibition (lipid kinase activity, Kinase-Glo luminescence). Format: biochemical. The note with it: Enzymatic assay. The procedure, abridged: (§1)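 IC50s derive from 4-parameter logistic fits of % inhibition across 8 concentrations (usually 10 to 0.003 μM). Lipid kinase reaction: PI3K (10 nM) plus phosphatidylinositol (5 μg/mL) started with 2 μM ATP, stopped near 50% ATP depletion; leftover ATP quantified by Kinase-Glo luminescence.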
PI3K delta, sequence (O00329 other isoform, or with tags, fused parts or gaps linker GGGGGG): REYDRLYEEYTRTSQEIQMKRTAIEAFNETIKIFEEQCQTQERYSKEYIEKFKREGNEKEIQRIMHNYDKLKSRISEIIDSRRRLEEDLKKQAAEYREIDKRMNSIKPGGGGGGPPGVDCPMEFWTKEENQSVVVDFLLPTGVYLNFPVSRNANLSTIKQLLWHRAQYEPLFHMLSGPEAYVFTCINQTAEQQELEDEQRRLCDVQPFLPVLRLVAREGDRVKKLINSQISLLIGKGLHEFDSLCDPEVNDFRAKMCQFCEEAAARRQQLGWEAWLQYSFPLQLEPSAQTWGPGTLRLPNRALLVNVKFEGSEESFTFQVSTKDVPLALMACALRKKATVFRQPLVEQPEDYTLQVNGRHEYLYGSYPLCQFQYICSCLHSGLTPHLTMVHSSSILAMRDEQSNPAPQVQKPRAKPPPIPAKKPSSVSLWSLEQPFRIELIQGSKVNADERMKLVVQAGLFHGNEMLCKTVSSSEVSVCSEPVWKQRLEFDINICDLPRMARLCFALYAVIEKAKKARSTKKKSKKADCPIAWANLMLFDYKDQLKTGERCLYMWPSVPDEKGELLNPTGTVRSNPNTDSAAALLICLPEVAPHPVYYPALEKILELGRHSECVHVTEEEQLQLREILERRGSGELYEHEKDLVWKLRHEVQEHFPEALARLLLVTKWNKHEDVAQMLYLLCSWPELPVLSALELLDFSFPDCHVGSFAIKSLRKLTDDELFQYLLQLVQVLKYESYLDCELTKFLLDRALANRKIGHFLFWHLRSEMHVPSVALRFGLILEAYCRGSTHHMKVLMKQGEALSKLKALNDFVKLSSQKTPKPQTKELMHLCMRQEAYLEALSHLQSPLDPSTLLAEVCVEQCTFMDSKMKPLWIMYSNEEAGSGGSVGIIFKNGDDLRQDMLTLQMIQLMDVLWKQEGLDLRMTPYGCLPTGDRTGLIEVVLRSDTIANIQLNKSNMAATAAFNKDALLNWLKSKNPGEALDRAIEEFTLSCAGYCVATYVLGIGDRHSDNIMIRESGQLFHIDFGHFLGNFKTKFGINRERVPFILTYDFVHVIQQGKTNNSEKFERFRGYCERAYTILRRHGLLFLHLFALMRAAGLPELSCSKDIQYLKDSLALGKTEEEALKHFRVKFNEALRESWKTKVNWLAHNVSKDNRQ

The next assay deals with PI3K alpha (Homo sapiens (Human), UniProt P42336). Nature of the assay: Enzymatic PI3K alpha isoform inhibition (lipid kinase activity, Kinase-Glo luminescence). Format: biochemical. To be noted: Enzymatic assay. Summed up:
as §1

PI3K alpha, sequence (P42336 other isoform, or with tags, fused parts or gaps): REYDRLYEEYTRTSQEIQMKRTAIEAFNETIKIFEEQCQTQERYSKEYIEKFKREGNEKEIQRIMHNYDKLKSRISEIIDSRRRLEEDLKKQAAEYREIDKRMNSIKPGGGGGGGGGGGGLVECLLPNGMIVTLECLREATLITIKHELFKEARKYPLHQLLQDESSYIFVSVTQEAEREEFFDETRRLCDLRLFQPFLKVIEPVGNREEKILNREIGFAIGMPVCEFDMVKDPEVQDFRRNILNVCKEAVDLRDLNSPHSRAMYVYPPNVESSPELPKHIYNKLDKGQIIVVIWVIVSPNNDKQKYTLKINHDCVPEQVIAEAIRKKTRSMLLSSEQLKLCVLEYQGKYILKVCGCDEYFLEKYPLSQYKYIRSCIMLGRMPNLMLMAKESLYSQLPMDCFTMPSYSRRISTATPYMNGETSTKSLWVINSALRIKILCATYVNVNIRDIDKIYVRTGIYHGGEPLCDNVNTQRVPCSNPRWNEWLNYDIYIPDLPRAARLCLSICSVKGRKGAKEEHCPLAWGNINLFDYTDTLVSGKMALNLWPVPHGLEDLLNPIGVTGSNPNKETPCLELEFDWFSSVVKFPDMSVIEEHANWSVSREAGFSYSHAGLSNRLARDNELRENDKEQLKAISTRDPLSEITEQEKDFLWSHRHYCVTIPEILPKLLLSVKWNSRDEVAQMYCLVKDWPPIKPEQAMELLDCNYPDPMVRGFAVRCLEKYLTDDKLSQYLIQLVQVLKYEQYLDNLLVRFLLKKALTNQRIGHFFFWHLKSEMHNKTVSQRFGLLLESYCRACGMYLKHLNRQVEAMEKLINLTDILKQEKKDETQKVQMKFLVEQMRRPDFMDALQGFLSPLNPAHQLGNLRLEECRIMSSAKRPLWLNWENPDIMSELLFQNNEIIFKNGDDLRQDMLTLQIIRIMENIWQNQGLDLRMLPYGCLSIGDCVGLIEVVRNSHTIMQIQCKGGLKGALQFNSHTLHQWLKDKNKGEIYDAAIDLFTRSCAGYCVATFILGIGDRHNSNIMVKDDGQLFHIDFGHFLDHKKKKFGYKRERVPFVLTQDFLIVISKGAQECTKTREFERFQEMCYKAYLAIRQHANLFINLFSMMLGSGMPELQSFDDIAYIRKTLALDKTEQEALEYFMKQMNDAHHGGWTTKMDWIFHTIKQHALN

In the case of `COc1ncc(N2CCOc3cnc(O[C@H]4CCN(C(=O)C5CCS(=O)(=O)CC5)C4)cc32)cc1F` [Example F2, (1,1-Dioxo-hexahydro-1lambda*6*-thiopyran-4-yl)-{(S)-3-[1-(5-fluoro-6-methoxy-pyridin-3-yl)-2,3-dihydro-1H-pyrido[3,4-b][1,4]oxazin-7-yloxy]-pyrrolidin-1-yl}-methanone], the IC50 turned out to be 5 nM at PI3K delta and 725 nM against PI3K alpha.
For `COc1ncc(N2CCOc3cnc(O[C@H]4CCN(C(=O)C5CCOCC5)C4)cc32)cc1C#N` [Example F4, 2-Methoxy-5-{7-[(S)-1-(tetrahydro-pyran-4-carbonyl)-pyrrolidin-3-yloxy]-2,3-dihydro-pyrido[3,4-b][1,4]oxazin-1-yl}-nicotinonitrile], the IC50 against PI3K delta stood at 3 nM; against PI3K alpha, 577 nM.
As for `COc1ncc(N2CCOc3cnc(O[C@H]4CCN(C(=O)c5cn(C)cn5)C4)cc32)cc1C#N` [Example F5, 2-Methoxy-5-{7-[(S)-1-(1-methyl-1H-imidazole-4-carbonyl)-pyrrolidin-3-yloxy]-2,3-dihydro-pyrido[3,4-b][1,4]oxazin-1-yl}-nicotinonitrile], the IC50 on PI3K delta turned out to be 25 nM; on PI3K alpha it was 444 nM.
Regarding `Cc1cc(N2CCOc3cnc(O[C@H]4CCN(C(=O)C5CCOCC5)C4)cc32)cnc1S(C)(=O)=O` [Example F6, {(S)-3-[1-(6-Methanesulfonyl-5-methyl-pyridin-3-yl)-2,3-dihydro-1H-pyrido[3,4-b][1,4]oxazin-7-yloxy]-pyrrolidin-1-yl}-(tetrahydro-pyran-4-yl)-methanone], the IC50 amounted to 3 nM on PI3K delta and 783 nM on PI3K alpha.
On to `COc1ncc(N2CCOc3cnc(O[C@H]4CCN(C(=O)C5CCOCC5)C4)cc32)cc1C(F)F` [Example F8, {(S)-3-[1-(5-Difluoromethyl-6-methoxy-pyridin-3-yl)-2,3-dihydro-1H-pyrido[3,4-b][1,4]oxazin-7-yloxy]-pyrrolidin-1-yl}-(tetrahydro-pyran-4-yl)-methanone], for which the IC50 on PI3K delta came out at 5 nM; on PI3K alpha, 38 nM.
In the same order, the values of `COCC(=O)N1CC[C@H](Oc2cc3c(cn2)OCCN3c2cnc(OC)c(C(F)F)c2)C1` [Example F9, 1-{(S)-3-[1-(5-Difluoromethyl-6-methoxy-pyridin-3-yl)-2,3-dihydro-1H-pyrido[3,4-b][1,4]oxazin-7-yloxy]-pyrrolidin-1-yl}-2-methoxy-ethanone] are < 3 nM and 28 nM.
Take `COc1ncc(N2CCOc3cnc(O[C@H]4CCN(C(=O)c5cn(C)cn5)C4)cc32)cc1C(F)F` [Example F10, {(S)-3-[1-(5-Difluoromethyl-6-methoxy-pyridin-3-yl)-2,3-dihydro-1H-pyrido[3,4-b][1,4]oxazin-7-yloxy]-pyrrolidin-1-yl}-(1-methyl-1H-imidazol-4-yl)-methanone]: the figures for the half-maximal inhibitory concentration (IC50) on PI3K delta and on PI3K alpha were < 3 nM and 39 nM, respectively.
In the same order, the values of `COCC(=O)N1CC[C@H](Oc2cc3c(cn2)OCCN3c2cnc(S(C)(=O)=O)c(C(F)F)c2)C1` [Example F11, 1-{(S)-3-[1-(5-Difluoromethyl-6-methanesulfonyl-pyridin-3-yl)-2,3-dihydro-1H-pyrido[3,4-b][1,4]oxazin-7-yloxy]-pyrrolidin-1-yl}-2-methoxy-ethanone] are 76 nM and 78 nM.
As to `COc1ncc(N2CCOc3cnc(OC4CCN(C(=O)C5CCS(=O)(=O)CC5)C4)cc32)cc1C` (centres unmarked) [Example F12, (1,1-Dioxo-hexahydro-1lambda*6*-thiopyran-4-yl)-{3-[1-(6-methoxy-5-methyl-pyridin-3-yl)-2,3-dihydro-1H-pyrido[3,4-b][1,4]oxazin-7-yloxy]-pyrrolidin-1-yl}-methanone], the values for the 50% inhibitory concentration (IC50) on PI3K delta and at PI3K alpha were < 3 nM and 440 nM, respectively.
In the case of `COc1ncc(N2CCOc3cnc(O[C@H]4CCN(C(=O)C5CCS(=O)(=O)CC5)C4)cc32)cc1C#N` [Example F13, 5-{7-[(S)-1-(1,1-Dioxo-hexahydro-1lambda*6*-thiopyran-4-carbonyl)-pyrrolidin-3-yloxy]-2,3-dihydro-pyrido[3,4-b][1,4]oxazin-1-yl}-2-methoxy-nicotinonitrile], the IC50 against PI3K delta was 24 nM; at PI3K alpha it was 704 nM.
As for `COc1ncc(N2CCOc3cnc(O[C@H]4CCN(C(=O)c5cn6ccsc6n5)C4)cc32)cc1C(F)(F)F` [Example G1, Imidazo[2,1-b]thiazol-6-yl-{(S)-3-[1-(6-methoxy-5-trifluoromethyl-pyridin-3-yl)-2,3-dihydro-1H-pyrido[3,4-b][1,4]oxazin-7-yloxy]-pyrrolidin-1-yl}-methanone], the results for the IC50 on PI3K delta and against PI3K alpha were 17 nM and 49 nM, respectively.
On to `COc1ncc(N2CCOc3cnc(O[C@@H]4CCN(C(=O)C5CCS(=O)(=O)CC5)C4)cc32)cc1C` [Example G2, (1,1-Dioxo-hexahydro-1lambda*6*-thiopyran-4-yl)-{(R)-3-[1-(6-methoxy-5-methyl-pyridin-3-yl)-2,3-dihydro-1H-pyrido[3,4-b][1,4]oxazin-7-yloxy]-pyrrolidin-1-yl}-methanone], for which the IC50 on PI3K delta was 207 nM; against PI3K alpha it was 1200 nM.
For the compound `COc1ncc(N2CCOc3cnc(O[C@H]4CCN(C(=O)c5ncn(C)c5N)C4)cc32)cc1C(F)(F)F` [Example G3, (5-Amino-1-methyl-1H-imidazol-4-yl)-{(S)-3-[1-(6-methoxy-5-trifluoromethyl-pyridin-3-yl)-2,3-dihydro-1H-pyrido[3,4-b][1,4]oxazin-7-yloxy]-pyrrolidin-1-yl}-methanone], the IC50 was 56 nM against PI3K delta and 372 nM at PI3K alpha.
Consider `Cc1cc(N2CCOc3ccc(O[C@H]4CCN(C(=O)C5CCS(=O)(=O)C5)C4)cc32)cnc1S(C)(=O)=O` (some centres unmarked) [Example H2], for which the IC50 against PI3K delta was 13 nM; at PI3K alpha, 913 nM.
As to `COc1ncc(N2CCOc3ccc(O[C@H]4CCN(C(=O)C5CCS(=O)(=O)CC5)C4)c(F)c32)cc1C` [Example I1, (1,1-Dioxo-hexahydro-1lambda*6*-thiopyran-4-yl)-{(S)-3-[5-fluoro-4-(6-methoxy-5-methyl-pyridin-3-yl)-3,4-dihydro-2H-benzo[1,4]oxazin-6-yloxy]-pyrrolidin-1-yl}-methanone], the IC50 was 18 nM on PI3K delta and 842 nM against PI3K alpha.
On to `COc1ncc(N2CCOc3ccc(O[C@H]4CCN(C(=O)C5CCS(=O)(=O)CC5)C4)c(F)c32)cc1C(F)F` [Example I2], for which the IC50 against PI3K delta amounted to 5 nM; on PI3K alpha, 308 nM.
For the compound `Cc1cc(N2CCOc3ccc(O[C@H]4CCN(C(=O)C5CCOCC5)C4)c(F)c32)cnc1S(C)(=O)=O` [Example I3], the IC50 came to 6 nM on PI3K delta and 836 nM at PI3K alpha.
The corresponding values for `COc1ncc(N2CC(C)Oc3ccc(O[C@H]4CCN(C(=O)C5CCOCC5)C4)cc32)cc1C#N` (stereo partly drawn) [Example O1, 2-Methoxy-5-{2-methyl-6-[(S)-1-(tetrahydro-pyran-4-carbonyl)-pyrrolidin-3-yloxy]-2,3-dihydro-benzo[1,4]oxazin-4-yl}-nicotinonitrile] are 53 nM and 4570 nM.
As for `COc1ncc(N2CCOc3ccc(O[C@H]4CCN(C(=O)[C@H]5CCN(C(C)=O)C5)C4)cc32)cc1C#N` [J, 5-{6-[(S)-1-((S)-1-Acetyl-pyrrolidine-3-carbonyl)-pyrrolidin-3-yloxy]-2,3-dihydro-benzo[1,4]-oxazin-4-yl}-2-methoxy-nicotinonitrile], the IC50 at PI3K delta came out at 65 nM; against PI3K alpha, 998 nM.
